Reference: paper PMC11083775, “Synthesis, In Silico and Kinetics Evaluation of N-(β-D-glucopyranosyl)-2-arylimidazole-4(5)-carboxamides and N-(β-D-glucopyranosyl)-4(5)-arylimidazole-2-carboxamides as Glycogen Phosphorylase Inhibitors” (International Journal of Molecular Sciences, 2024)
Like-named read-outs stand apart in the source and are kept apart here.

Columns and labels:
[1] = target: T1, rabbit muscle glycogen phosphorylase b (rmGPb) (Oryctolagus cuniculus, UniProt P00489); experiment: Kinetics of rabbit muscle GPb inhibition, assayed in the direction of glycogen synthesis; assay type: biochemical; conditions: 10 μg/mL enzyme, glucose-1-phosphate 4–40 mM, 1% glycogen, 1 mM AMP, at least three independent experiments, ± SD, read-out: Inhibition constant (Ki)
T1 sequence (P00489 1-843): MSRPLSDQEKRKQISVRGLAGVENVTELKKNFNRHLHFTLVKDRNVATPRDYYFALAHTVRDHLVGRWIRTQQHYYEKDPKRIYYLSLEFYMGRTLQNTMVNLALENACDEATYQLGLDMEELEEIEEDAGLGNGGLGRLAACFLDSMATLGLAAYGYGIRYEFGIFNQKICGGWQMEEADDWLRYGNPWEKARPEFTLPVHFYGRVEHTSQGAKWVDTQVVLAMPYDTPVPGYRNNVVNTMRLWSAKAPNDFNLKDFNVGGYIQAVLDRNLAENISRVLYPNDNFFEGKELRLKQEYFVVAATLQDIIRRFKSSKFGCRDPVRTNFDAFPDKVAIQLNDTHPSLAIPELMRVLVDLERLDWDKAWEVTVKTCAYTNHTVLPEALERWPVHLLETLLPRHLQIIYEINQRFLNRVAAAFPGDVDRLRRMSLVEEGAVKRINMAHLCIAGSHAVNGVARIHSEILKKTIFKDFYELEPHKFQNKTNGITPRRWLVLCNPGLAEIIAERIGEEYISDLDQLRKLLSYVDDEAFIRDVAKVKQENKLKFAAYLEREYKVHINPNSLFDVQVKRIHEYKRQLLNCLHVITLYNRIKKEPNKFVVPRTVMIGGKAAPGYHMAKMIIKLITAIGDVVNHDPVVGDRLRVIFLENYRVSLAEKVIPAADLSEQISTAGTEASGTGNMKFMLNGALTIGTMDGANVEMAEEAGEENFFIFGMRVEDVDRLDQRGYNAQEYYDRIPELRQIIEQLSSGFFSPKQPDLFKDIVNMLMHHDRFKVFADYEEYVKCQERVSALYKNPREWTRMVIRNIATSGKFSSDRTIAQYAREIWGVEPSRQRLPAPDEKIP
Method: Inhibitory constants (Ki) were determined for rabbit muscle glycogen phosphorylase. Enzyme activity was assayed in the direction of glycogen synthesis, as previously published. The experiments were performed using the rabbit muscle phosphorylase b (dephosphorylated, GPb) isoform. Kinetic data for the inhibition of GPb by the compounds were obtained in the presence of 10 μg/mL of the enzyme, varying the concentrations of α-D-glucose-1-phosphate (4–40 mM) and using constant concentrations (1%) of glycogen and AMP (1 mM). The enzymatic activities were presented in the form of a double reciprocal plot (Lineweaver–Burk). The plots were analysed using a non-linear data analysis program. The inhibitor constants (Ki) were determined using secondary plots, replotting the slopes from the Lineweaver–Burk plot against the inhibitor concentrations. The means of the standard errors for all calculated kinetic parameters averaged to less than 10% [40].

[2] = target: T1, rabbit muscle glycogen phosphorylase b (rmGPb); conditions: cited from earlier work

Compound	Ki [1]	Ki [2]
O=C(N[C@@H]1O[C@H](CO)[C@@H](O)[C@H](O)[C@H]1O)c1ncc(-c2ccccc2)[nH]1 [Compound 2a, N-(β-D-Glucopyranosyl)-4(5)-phenyl-1H-imidazole-2-carboxamide]	67.4 ± 9.7 µM	
O=C(N[C@@H]1O[C@H](CO)[C@@H](O)[C@H](O)[C@H]1O)c1nc(-c2ccc3ccccc3c2)no1 [VIIIc]		no inh.
O=C(N[C@@H]1O[C@H](CO)[C@@H](O)[C@H](O)[C@H]1O)c1cnc(-c2cccc3ccccc23)[nH]1 [Compound 1b, N-(β-D-Glucopyranosyl)-2-(1-naphthyl)-1H-imidazole-4(5)-carboxamide]	16.2 ± 8.1 µM	
O=C(N[C@@H]1O[C@H](CO)[C@@H](O)[C@H](O)[C@H]1O)c1noc(-c2ccc3ccccc3c2)n1 [VIIc]		no inh.

The remaining compounds from weak to strong by Ki [1], led by results:

Ki [1]	Compound	Ki [2]
12.8 ± 3 µM	O=C(N[C@@H]1O[C@H](CO)[C@@H](O)[C@H](O)[C@H]1O)c1cnc(-c2ccc3ccccc3c2)[nH]1 [Compound 1c, N-(β-D-Glucopyranosyl)-2-(2-naphthyl)-1H-imidazole-4(5)-carboxamide]	
10.4 ± 6.2 µM	O=C(N[C@@H]1O[C@H](CO)[C@@H](O)[C@H](O)[C@H]1O)c1cnc(-c2ccccc2)[nH]1 [Compound 1a, N-(β-D-Glucopyranosyl)-2-phenyl-1H-imidazole-4(5)-carboxamide]	
4.1 ± 0.8 µM	O=C(N[C@@H]1O[C@H](CO)[C@@H](O)[C@H](O)[C@H]1O)c1ncc(-c2cccc3ccccc23)[nH]1 [Compound 2b, N-(β-D-Glucopyranosyl)-4(5)-(1-naphthyl)-1H-imidazole-2-carboxamide]	
3.3 ± 0.1 µM	O=C(N[C@@H]1O[C@H](CO)[C@@H](O)[C@H](O)[C@H]1O)c1ncc(-c2ccc3ccccc3c2)[nH]1 [Compound 2c, N-(β-D-Glucopyranosyl)-4(5)-(2-naphthyl)-1H-imidazole-2-carboxamide]	
